Reference: article PMC8272136, “Discovery of New Pyrazolopyridine, Furopyridine, and Pyridine Derivatives as CDK2 Inhibitors: Design, Synthesis, Docking Studies, and Anti-Proliferative Activity” (Molecules, 2021)
“And” between values parts separate entries of the source, which are not always exact repeats. Identical values can stand only once. Like-named read-outs stand apart in the source and are kept apart here.

Assays:
[1] = test system: HCT-116 (human colorectal carcinoma) cells; experiment: MTT cytotoxicity assay, HCT-116; assay type: cell-based; conditions: 48 h, read-out: IC50 (µM) ± SD HCT-116
Procedure: (§1) In this study, ten compounds were examined in vitro for their activities against HCT-116, MCF-7, HepG2, and A549 human cancer cells using the MTT assay. The percentages of intact cells were calculated and compared to those of the control. The activities of these compounds against the four cell lines were compared to the activity of doxorubicin as well. […] In order to study the efficacy of the synthesized compounds, a comparison of the cytotoxic effect of each compound has been related to the cytotoxicity of the reference drug as follows.
(§2) Cell cultures of HCT-116 (human colorectal carcinoma), MCF-7 (human breast adenocarcinoma), HepG2 (human hepatocellular carcinoma), and A549 (human lung carcinoma) cell lines were purchased from the American Type Culture Collection (Rockville, MD, USA) and maintained in DMEM medium that was supplemented with 10% heat-inactivated FBS (fetal bovine serum), 100 U/mL penicillin, and […] streptomycin. The cells were grown at 37 °C in a humidified atmosphere of 5% CO2.
(§3) The anticancer activity against HCT-116, HepG2, A549, and MCF-7 human cancer cell lines was estimated using the 3-[4,5-dimethyl-2-thiazolyl)-2,5-diphenyl-2H-tetrazolium bromide (MTT) assay, which is based on the reduction of the tetrazolium salt by mitochondrial dehydrogenases in viable cells. Cells were dispensed in a 96-well sterile microplate (5 × 10^4 cells/well) and incubated at 37 °C with a series of different concentrations, in DMSO, of each tested compound or doxorubicin (positive control) for 48 h in a serum-free medium prior to the MTT assay. After incubation, media were carefully removed, and 40 µL of MTT (2.5 mg/mL) were added to each well and then incubated for an additional 4 h. The purple formazan dye crystals were solubilized by the addition of 200 µL of DMSO. The absorbance was measured at 570 nm using a Spectra Max Paradigm Multi-Mode microplate reader. The relative cell viability was expressed as the mean percentage of viable cells compared to the untreated control cells. All experiments were conducted in triplicate and repeated on three different days. All the values were represented as mean ± SD. IC50s were determined by probit analysis by SPSS Incprobit analysis (IBM Corp., Armonk, NY, USA).

[2] = target: T1, CDK2/cyclin A2 protein kinase (Homo sapiens, UniProt P24941); design: method as in PMID 33390512, PMID 22119131; conditions: external test set of QSAR model, reported compounds V, VI; read-out: Experimental Activity (IC50/μM); cited from earlier work
[3] = test system: A549 (human lung carcinoma) cells; experiment: MTT cytotoxicity assay, A549; assay type: cell-based; conditions: 48 h, read-out: IC50 (µM) ± SD A549
Procedure: as §1, §2, §3

[4] = target: T1, CDK2/cyclin A2 protein kinase; experiment: CDK2/cyclin A2 kinase assay (Promega Kinase-Glo Plus luminescence kit); assay type: biochemical
From the text: It measures kinase activity by quantitating the amount of ATP remaining in solution following a kinase reaction. The luminescent signal from the assay is correlated with the amount of ATP present and is inversely correlated with the amount of kinase activity. […] The computer software Graphpad Prism was used for analyzing the luminescence data. The difference between luminescence intensities in the absence of CDK2/cyclin A2 protein kinase (Lut) and in the presence of kinase (Luc) was defined as 100% activity (Lut − Luc). Using luminescence signal (Lu) in the presence of the compound, the percentage of activity was calculated as: % activity = {(Lut − Lu)/(Lut − Luc)} × 100%, where Lu = the luminescence intensity in the presence of the compound.

[5] = test system: MCF-7 (human breast adenocarcinoma) cells; experiment: MTT cytotoxicity assay, MCF-7; assay type: cell-based; conditions: MCF7, 48 h, read-out: IC50 (µM) ± SD MCF-7
Procedure: as §1, §2, §3

[6] = test system: HepG2 (human hepatocellular carcinoma) cells; experiment: MTT cytotoxicity assay, HepG2; assay type: cell-based; conditions: 48 h, read-out: IC50 (µM) ± SD HepG2
Procedure: as §1, §2, §3

[7] = CDK2/cyclin A2, Kinase-Glo Plus luminescence, read-out: CDK2 IC50 (µM) ± SD

Question: With `COc1cccc2c1C(=O)c1c(O)c3c(c(O)c1C2=O)C[C@@](O)(C(=O)CO)C[C@@H]3O[C@H]1C[C@H](N)[C@H](O)[C@H](C)O1` [Doxorubicin, reference compound] as the compound, how does the IC50 [1] read?
Answer: 40 ± 3.9 µM

Question: Which IC50 [2] does the source give for `N#Cc1c(N)nc2[nH]c(=S)sc2c1-c1cccs1` [VI] here?
Answer: 0.139 µM

Question: Which IC50 [2] does the source give for `Oc1nc(-c2cccs2)c2sc(=S)[nH]c2n1` [V] here?
Answer: 0.743 µM

Question: What does the source list for `N#Cc1c(-c2cccs2)cc(-c2ccc3ccccc3c2)[nH]c1=O` [compound 1, 6-(naphthalen-2-yl)-2-oxo-4-(thiophen-2-yl)-1,2-dihydropyridine-3-carbonitrile]?
Answer: IC50 [3]: 60.6 ± 4.8 µM; IC50 [1]: 39.1 ± 4.2 µM; IC50 [4, 7]: 0.57 ± 0.1 µM; IC50 [5]: 47 ± 4.5 µM; IC50 [6]: 27.9 ± 3.1 µM

Question: Which IC50 [3] does the source give for `N#Cc1c(-c2cccs2)cc(-c2ccc3ccccc3c2)nc1OC(=O)CCl` [compound 2, 3-Cyano-6-(naphthalen-2-yl)-4-(thiophen-2-yl)pyridin-2-yl 2-chloroacetate] here?
Answer: 70.7 ± 4.1 µM

Question: And the IC50 [1]?
Answer: 43.5 ± 4.5 µM

Question: What about the IC50 [4, 7] of the same compound?
Answer: 1.79 ± 0.1 µM

Question: And the IC50 [5]?
Answer: 21.3 ± 3.1 µM

Question: What about the IC50 [6] of the same compound?
Answer: 29.4 ± 3.5 µM

Question: And the melting point?
Answer: 165 to 166 °C

Question: What does the source list for `N#Cc1c(-c2cccs2)cc(-c2ccc3ccccc3c2)nc1OC1=NC(=S)NC1` [compound 3, 6-(Naphthalen-2-yl)-4-(thiophen-2-yl)-2-((2-thioxo-2,5-dihydro-1H-imidazol-4-yl)oxy)nicotinonitrile]?
Answer: IC50 [3]: 57.4 ± 4.5 µM; IC50 [1]: 49 ± 5.1 µM; IC50 [4, 7]: 1.01 ± 0.1 µM; IC50 [5]: 37.3 ± 4.1 µM; IC50 [6]: 44.8 ± 4.1 µM; melting point: 172 to 173 °C

Question: Which IC50 [3] does the source give for `N#Cc1c(-c2cccs2)cc(-c2ccc3ccccc3c2)nc1Cl` [compound 4, 2-chloro-6-(naphthalen-2-yl)-4-(thiophen-2-yl)nicotinonitrile] here?
Answer: 67.2 ± 5.1 µM

Question: What about the IC50 [1] of the same compound?
Answer: 45.9 ± 4.1 µM

Question: What about the IC50 [4, 7] of the same compound?
Answer: 0.24 µM and 0.236 µM

Question: What about the IC50 [5] of the same compound?
Answer: 46.2 ± 4.1 µM

Question: And the IC50 [6]?
Answer: 42.9 ± 3.9 µM

Question: What does the source list for `COc1nc(-c2ccc3ccccc3c2)cc(-c2cccs2)c1C#N` [compound 5, 2-Methoxy-6-(naphthalen-2-yl)-4-(thiophen-2-yl)nicotinonitrile]?
Answer: IC50 [3]: 47.6 ± 4.5 µM; IC50 [1]: 33.8 ± 3.5 µM; IC50 [4, 7]: 3.53 ± 0.2 µM; IC50 [5]: 55.5 ± 4.5 µM; IC50 [6]: 27.2 ± 3.1 µM; melting point: 125 to 126 °C

Question: With `N#Cc1c(-c2cccs2)cc(-c2ccc3ccccc3c2)nc1Nc1ccccc1` [compound 6, 6-(Naphthalen-2-yl)-2-(phenylamino)-4-(thiophen-2-yl)nicotinonitrile] as the compound, how does the melting point read?
Answer: 130 to 131 °C

Question: For `N#Cc1c(-c2cccs2)cc(-c2ccc3ccccc3c2)[nH]c1=S` [compound 7], which IC50 [3] is on record?
Answer: 36.8 ± 4.1 µM

Question: And the IC50 [1]?
Answer: 37.8 ± 3.9 µM

Question: And the IC50 [4, 7]?
Answer: 1.27 ± 0.1 µM

Question: What about the IC50 [5] of the same compound?
Answer: 27.4 ± 2.4 µM

Question: What about the IC50 [6] of the same compound?
Answer: 22.7 ± 2.9 µM

Question: With `Nc1n[nH]c2nc(-c3ccc4ccccc4c3)cc(-c3cccs3)c12` [compound 8, 6-(Naphthalen-2-yl)-4-(thiophen-2-yl)-1H-pyrazolo[3,4-b]pyridin-3-amine] as the compound, how does the IC50 [3] read?
Answer: 43.8 ± 4.1 µM

Question: And the IC50 [1]?
Answer: 33.7 ± 3.3 µM

Question: And the IC50 [4, 7]?
Answer: 0.65 µM and 0.651 µM

Question: And the IC50 ([4]; external test set of QSAR model, compound 8, CDK2, read-out: Experimental Activity (IC50/μM))?
Answer: 0.651 µM

Question: What about the IC50 [5] of the same compound?
Answer: 19.3 ± 2.1 µM

Question: And the IC50 [6]?
Answer: 29.1 ± 3.5 µM

Question: And the melting point?
Answer: 175 to 176 °C

Question: With `N#Cc1c(-c2cccs2)cc(-c2ccc3ccccc3c2)nc1SC(=O)CCl` [compound 11, S-(3-Cyano-6-(naphthalen-2-yl)-4-(thiophen-2-yl)pyridin-2-yl)2-chloroethanethioate] as the compound, how does the IC50 [3] read?
Answer: 56.9 ± 4.6 µM

Question: What about the IC50 [1] of the same compound?
Answer: 31.7 ± 3.5 µM

Question: What about the IC50 [4, 7] of the same compound?
Answer: 0.5 µM and 0.504 µM

Question: What about the IC50 [5] of the same compound?
Answer: 46.4 ± 4.3 µM

Question: And the IC50 [6]?
Answer: 27.6 ± 3.3 µM

Question: What about the melting point of the same compound?
Answer: 160 to 161 °C

Question: Which results are given for `CCOC(=O)COc1nc(-c2ccc3ccccc3c2)cc(-c2cccs2)c1C#N` [compound 13]?
Answer: IC50 [3]: 45.9 ± 4.3 µM; IC50 [1]: 32.4 ± 3.1 µM; IC50 [4, 7]: 4.45 ± 0.2 µM; IC50 [5]: 37.6 ± 3.5 µM; IC50 [6]: 30.2 ± 3.7 µM

Question: Which results are given for `CCOC(=O)c1oc2nc(-c3ccc4ccccc4c3)cc(-c3cccs3)c2c1N` [compound 14, Ethyl-3-amino-6-(naphthalen-2-yl)-4-(thiophen-2-yl)furo[2,3-b]pyridine-2-carboxylate]?
Answer: IC50 [3]: 56.5 ± 4.8 µM; IC50 [1]: 31.3 ± 3.3 µM; IC50 [4, 7]: 0.93 µM and 0.928 µM; IC50 [5]: 26.1 ± 3.9 µM; IC50 [6]: 27.9 ± 3.5 µM; melting point: 185 to 186 °C

Question: With `O=c1[nH]cnc2c1oc1nc(-c3ccc4ccccc4c3)cc(-c3cccs3)c12` [compound 15, 7-(Naphthalen-2-yl)-9-(thiophen-2-yl)pyrido[3′,2′:4,5]furo[3,2-d]pyrimidin-4(3H)-one] as the compound, how does the melting point read?
Answer: 197 to 198 °C
